Experimental data taken from patent publication US20250169496A1, “USE OF 2-AMINO-3-HYDROXY-3-METHYLBUTYRIC ACID AND/OR 2-AMINO-3-(4-HYDROXYPHENYL) BUTYRIC ACID” (NANJING TIANNONG BIOTECHNOLOGY CO., LTD., priority 2021, published 2025).

How the values were obtained:
[1] = tested on: tomato spotted wilt virus (TSWV); experiment: Induced resistance of tobacco to infection of tomato spotted wilt virus; assay type: in vivo, Nicotiana benthamiana; details: for Viral protein content: tobacco leaves 3 d after inoculation, Western blot grayscale, relative
Procedure: Obtain the tomato spotted wilt virus from Yunnan Province, China, store the initial virus source in a −80° C. refrigerator, activate the virus by inoculating it by friction inoculation on Nicotiana benthamiana leaves, extract viral plasmids, transform them by Escherichia coli competent cells, spread them onto a resistant plate for culture, pick a single colony for PCR screening, select positive colonies for sequencing and subsequent plasmid extraction, add the plasmids with normal sequencing to agrobacterium competent cells, transform the agrobacterium by the electric shock method, spread the transformed agrobacterium solution on the corresponding resistance screening plate, and culture it at 28° C.(±1) for 48 h. Pick a single agrobacterium colony on the transformation plate, place it in 5 mL of LB medium with the corresponding resistance and culture it at 28° C. and 180 rpm overnight. Centrifuge at 6,000 rpm for 2 min, collect the bacteria, suspend the bacteria with a treatment buffer (10 mM MgCl2, 10 mM MES, 10 μM Acetosyringone) until the OD600 of the suspension is 0.5, treat it at 28° C. in a dark place for 3 h and keep it for future use.
Take 2-amino-3-hydroxy-3-methylbutyric acid, dissolve it with distilled water, then dilute the solution with distilled water by gradient into 0 nM, 0.1 nM, 1 nM and 10 nM solutions. Sow Nicotiana benthamiana seeds in a small pot, and culture them at 24(±1)° C., 12 h/12 h illumination for 5 weeks. Select healthy tobacco plants (plants with 8-10 leaves are appropriate), spray 2-amino-3-hydroxy-3-methylbutyric acid solutions at the above concentrations on leaves and stems twice at an interval of 24 h. After 24 hours, suck an agrobacterium solution at a uniform concentration with a 1 mL syringe, press the injection port of the syringe directly on a small hole on the back of a tobacco leaf, and slowly push the bacterial solution into the hole so that the whole leaf is soaked. Culture the soaked tobacco at 24(±1)° C. 12 h/12 h illumination. Observe under a microscope after 3 d and make record; meanwhile, take a sample, analyze the grayscale of protein bands by using Western blot and Image J software, and determine the relative protein content of virus in leaves. Observe the morbidity of the tobacco leaves after 15 days, record the disease index with reference to GB/T 23222-2008 Grade and Investigation Method of Tobacco Diseases and Insect Pests. The formula is as follows: […]
Grading standard of tomato spotted wilt viruses (grading survey with plant as a unit): • Level 0: No disease in the whole plant; • Level 1: The shoot and leaf veins are clear or the leaves are slightly mottled, and the diseased plant is not dwarfed obviously; • Level 3: One third of the leaves are mottled, but the leaves are not deformed, or the plant is dwarfed to more than three quarters of the normal plant height; • Level 5: One third to a half of the leaves are mottled, or a minority of leaves are deformed, or the main veins turn black, or the plant is dwarfed to two thirds to three quarters of the normal plant height; • Level 7: A half to two thirds of the leaves are mottled, or deformed or a minority of major lateral veins are dead, or the plant is dwarfed to a half to two thirds of the normal plant height; • Level 9: The leaves of the whole plant are mottled, or seriously deformed or dead, or the diseased plant is dwarfed to […] of the normal plant height.

[2] = tested on: Pseudomonas syringae PstDC3000; experiment: Induced resistance of Arabidopsis to infection of Pseudomonas syringae; assay type: in vivo; details: for Disease index: Arabidopsis 3 d after PstDC3000 inoculation; for CFU/mg (number of bacteria per mg of leaves): Arabidopsis leaves 3 d after PstDC3000 inoculation; for Decrease of disease index / Decrease of number of bacteria per mg of leaves: compared to blank control
Procedure: Take 2-amino-3-hydroxy-3-methylbutyric acid, dissolve it in sterile water, dilute the solution with sterile water by gradient into 100 nM, 1,000 nM and 10,000 nM solutions, set a blank control, and meanwhile add 0.02% Tween 20 as a surfactant. Spread Pseudomonas syringaePstDC3000 on an LB plate, and culture it at 28° C. for 48h; pick a monoclonal colony, inoculate it in a 50 mL centrifuge tube containing 2 mL of medium, culture it on a shaker at 28° C., 250 rpm, monitor changes of OD600 of the bacterial solution once every 1-2 h, and stop bacteria culturing before OD600 reaches 0.8; transfer 1 mL of the bacterial solution to a sterile 1.5 mL centrifuge tube, centrifuge it at 8000 rpm for 2 min, and collect the precipitate; remove the supernatant, wash the precipitate with 10 mM magnesium chloride for three times and centrifuge, lastly re-suspend PstDC3000 in the 10 mM magnesium chloride until its OD600 reaches 0.001, and keep it for future use. Soake Arabidopsis seeds in 75% alcohol for 3 min, then wash them with sterile water for 4 times, inoculate it in culture dishes filled with ½ MS medium, 12 seeds per dish, vernalize the ½ MS culture dishes containing seeds at 4° C. for 3 d to break dormancy, then put them in a 22° C. culture room with luminous intensity of 100μE m^−2s-^1(16 hillumination/8 h darkness), slowly pour the above 2-amino-3-hydroxy-3-methylbutyric acid at different concentrations into the culture dishes until the entire Arabidopsis seedlings are submerged after the seedlings have grown for 2 weeks, maintain this state for 2-3 minutes, and then pour the treatment solution out of the culture dishes, treat it once every 24 h, twice in total, inoculate PstDC3000 suspension (OD600=0.01) to Arabidopsis leaves by the same submerging method 24 h after the second treatment, seal the culture dishes with medical breathable adhesive after the inoculation, put them in the culture room for continued culturing. 3 d after, determine the number of bacteria after different treatments, observe the morbidity of Arabidopsis, and calculate the disease index by the method same as the disease index calculation formula in Embodiment 2.
Grading standard of diseases caused by PstDC3000(with leaf as a unit): • Level 0: No disease spot on the leaf surface; • Level 1: The area of the disease spots accounts for 0%-10% of the whole leaf area; • Level 2: The area of the disease spots accounts for 10%-25% of the whole leaf area; • Level 3: The area of the disease spots accounts for 25%-50% of the whole leaf area; • Level 4: The area of the disease spots accounts for 50%-75% of the whole leaf area; • Level 5: The area of the disease spots accounts for […] of the whole leaf area.

[3] = 0.1 nM sprayed twice, tobacco 15 days after TSWV inoculation
[4] = 1 nM sprayed twice, tobacco 15 days after TSWV inoculation
[5] = concentration range 0.1-10 nM, tobacco, TSWV

SMILES	Disease index [1, 3] [b]	Viral protein content ([1]; 0.1 nM) [b]	Relative immune effect ([1]; 0.1 nM, tobacco, TSWV) [%]	Disease index [1, 4] [c]	Viral protein content ([1]; 1 nM) [c]	Relative immune effect ([1]; 1 nM, tobacco, TSWV) [%]	Relative immune effect ([1]; 10 nM, tobacco, TSWV) [%]	Disease index [1, 5]	Relative immune effect [1, 5]	Disease index ([2]; 100 nM) [b]	CFU/mg (number of bacteria per mg of leaves) ([2]; 100 nM)	Decrease of disease index ([2]; 100 nM) [%]	Decrease of number of bacteria per mg of leaves ([2]; 100 nM) [%]	Disease index ([2]; 1,000 nM)	CFU/mg (number of bacteria per mg of leaves) ([2]; 1,000 nM)	Decrease of disease index ([2]; 1,000 nM) [%]	Decrease of number of bacteria per mg of leaves ([2]; 1,000 nM) [%]	Decrease of disease index ([2]; 10,000 nM) [%]	Decrease of number of bacteria per mg of leaves ([2]; 10,000 nM) [%]	CFU/mg (number of bacteria per mg of leaves) ([2]; 10,000 nM)
CC(c1ccc(O)cc1)C(N)C(=O)O (stereo not drawn) [2-amino-3-(4-hydroxyphenyl) butyric acid]	36.62 ± 0.87	0.34 ± 0.004	52.54	29.83 ± 2.31	0.28 ± 0.012	61.34	67.24	lower than 50	more than 50%	40.06 ± 0.98	4.43 × 10^5 CFU/mg	51.11	86.20	36.81 ± 0.28 c	3.04 × 10^5 CFU/mg	55.07	90.53	66.84	91.37	
CC(C)(O)C(N)C(=O)O (stereo not drawn) [2-amino-3-hydroxy-3-methylbutyric acid]	58.64 ± 2.31	0.41 ± 0.029	34.48	40.74 ± 3.02	0.30 ± 0.012	54.48	67.59	lower than 60	more than 30%	40.90 ± 2.41	9.46 × 10^5 CFU/mg	43.22	70.34	38.90 ± 1.96 b	7.11 × 10^5 CFU/mg	45.60	77.71	58.07	88.06	3.81×10^5 CFU/mg
